These results are taken from patent US20120101110A1, “Diaza-spiro[5.5]undecanes” (priority 2010, published 2012).

Test [1] concerns the target T1, human orexin 2 receptors (Homo sapiens, UniProt O43614).
T1 sequence (O43614 1-444): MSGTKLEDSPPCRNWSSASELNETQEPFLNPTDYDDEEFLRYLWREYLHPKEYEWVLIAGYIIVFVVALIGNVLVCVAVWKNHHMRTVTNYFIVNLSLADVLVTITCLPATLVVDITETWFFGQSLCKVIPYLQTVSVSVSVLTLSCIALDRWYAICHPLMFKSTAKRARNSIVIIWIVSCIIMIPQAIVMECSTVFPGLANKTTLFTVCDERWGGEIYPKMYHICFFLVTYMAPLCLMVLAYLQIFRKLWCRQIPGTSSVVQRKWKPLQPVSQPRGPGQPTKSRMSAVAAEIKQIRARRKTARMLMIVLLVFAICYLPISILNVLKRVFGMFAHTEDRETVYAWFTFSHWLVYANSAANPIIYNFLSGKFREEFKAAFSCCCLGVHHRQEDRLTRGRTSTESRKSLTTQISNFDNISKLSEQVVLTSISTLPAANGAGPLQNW
In words: Calcium accumulation in cells (FLIPR), hOx2R. The class given is cell-based. The settings on record: cells expressing human orexin 2 receptor; inhibition of orexin A-induced calcium accumulation; Cheng and Prusoff correction.
Description: Cells expressing human orexin 1 or human orexin 2 receptors, were seeded at 8,000 cells/well in 384 well black-walled clear bottom, poly-D-lysine coated plates. After 24 h, the medium was removed and cells were washed once with phosphate buffered saline and serum-deprived overnight in assay buffer (130 mM NaCl, 5.4 mM KCl, 1.8 mM CaCl2, 0.8 mM MgSO4, 0.9 mM NaH2PO4, 25 mM glucose, 20 mM HEPES, pH 7.4) containing bovine serum albumin (1% w/v).
On the day of the experiment, the cells seeded in black plates were treated with assay buffer containing the Ca^2+sensitive fluorescent dye Fluo-4-AM (2 μM), and probenecid (0.1 mM). After 1 h plates were washed twice with, and resuspended in, assay buffer containing probenecid (0.1 mM) using a multi plate washer. […] Fluorescence measurements were then continued every 1 S for 120 S followed by every 4 S for 240 S.
The measurements were typically made in two sequences:
Compounds of formula I were tested usually in a concentration range from 10^−9 M to 10^−5 M. In the second round, performed one hour later (to allow for equilibration), Orexin A was tested either in the absence (calibration curves, Orexin A agonist controls) or in the presence of compounds of formula I to determine antagonism.

Test [2] addresses T2, human orexin 1 receptors (Homo sapiens, UniProt O43613).
T2 sequence (O43613 1-425): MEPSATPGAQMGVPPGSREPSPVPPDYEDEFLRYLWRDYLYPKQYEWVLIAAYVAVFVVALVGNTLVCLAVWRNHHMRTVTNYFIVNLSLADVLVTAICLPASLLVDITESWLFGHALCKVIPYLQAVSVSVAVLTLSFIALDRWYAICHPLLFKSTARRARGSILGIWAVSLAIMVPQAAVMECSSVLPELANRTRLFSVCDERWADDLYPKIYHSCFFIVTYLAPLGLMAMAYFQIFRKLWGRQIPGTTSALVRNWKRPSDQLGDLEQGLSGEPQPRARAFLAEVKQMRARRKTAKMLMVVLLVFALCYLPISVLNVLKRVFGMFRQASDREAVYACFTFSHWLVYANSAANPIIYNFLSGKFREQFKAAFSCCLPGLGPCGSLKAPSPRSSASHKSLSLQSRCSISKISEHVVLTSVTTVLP
Nature of the test: Radioligand binding assay ([3H]-SB649868 competition), hOx1R. As to conditions: competition with about 1 nM [3H]-SB649868; CHO or HEK cell membranes expressing human orexin 1 receptor. The protocol:
(§1) The cell pellet was either stored at −80° C. or used directly. Before the experiments, cell membranes were re-suspended in binding assay buffer (10 mM HEPES, 0.5% (w/v) bovine serum albumin, pH 7.5) by homogenisation with a Polytron homogeniser at 50 Hz for 20 s. Cell membranes were also used as made available by commercial providers.
(§2) Bound radioactivity was measured, and data were analysed with the program XLFIT or Graphpad Prism. Protein concentration was determined according to the Bradford/BioRad Protein Assay Kit.
In competition experiments, cell homogenates (150 μl) were incubated in assay buffer (10 mM HEPES, pH 7.5, 0.5% (w/v) bovine serum albumin, 5 mM MgCl2, 1 mMCaCl2, and tween 0.05%) for 1 h at room temperature with about 1 nM of the radioligand [^3H]-SB649868, 66 Ci/mmole, 50 μl), and with various concentrations of compounds of the invention (50 μl) in triplicates; non-specific binding was determined in the presence of almorexant (10 μM). Reactions were terminated by vacuum filtration, 3 washes of ice cold wash buffer (Tris-HCl pH 7.4/10 mM, with NaCl 154 mM). Competition data is expressed in Table 2 as Kd [μM].

Test [3] concerns the target T1, human orexin 2 receptors. In words: Radioligand binding assay ([3H]-SB649868 competition), hOx2R. As to conditions: competition with about 1 nM [3H]-SB649868; CHO or HEK cell membranes expressing human orexin 2 receptor; read-out: binding hOx2R Kd. As for the experimental part:
as §1, §2
In competition experiments, cell homogenates (150 μl) were incubated in assay buffer (10 mM HEPES, pH 7.5, 0.5% (w/v) bovine serum albumin, 5 mM MgCl2, 1 mMCaCl2, and tween 0.05%) for 1 h at room temperature with about 1 nM of the radioligand [^3H]-SB649868, 66 Ci/mmole, 50 μl), and with various concentrations of compounds of the invention (50 μl) in triplicates; non-specific binding was determined in the presence of almorexant (10 μM).

In test [4] the target is T2, human orexin 1 receptors. Nature of the test: Calcium accumulation in cells (FLIPR), hOx1R. As to conditions: for inhibition at 10 µM: read-out: FLIPR hOx1R % inhibition value.

For orientation: Ki means a measure of affinity in units of concentration, obtained from inhibition or displacement. In general, Kd refers to the constant that tells how readily two partners part at equilibrium. Regarding `Cc1cc(C#N)cc(N2CCC3(CCCN(Cc4cccc(-c5ncccn5)c4)C3=O)CC2)n1` [Example 28, 2-methyl-6-(1-oxo-2-(3-(pyrimidin-2-yl)benzyl)-2,9-diazaspiro[5.5]undecan-9-yl)isonicotinonitrile], the Ki in test [1] amounted to 0.049 µM; in test [4], 1.11 µM. The Kd was 5.14 µM in test [2] and 0.15 µM in test [3].

As for `Cc1cc(C#N)cc(N2CCC3(CCCN(Cc4cccc(-c5ncc(C)o5)c4)C3=O)CC2)n1` [Example 29, 2-methyl-6-(2-(3-(5-methyloxazol-2-yl)benzyl)-1-oxo-2,9-diazaspiro[5.5]undecan-9-yl)isonicotinonitrile], the Ki in test [1] stood at 0.028 µM; in test [4], 0.351 µM. The results for the dissociation constant (Kd) in test [2] and in test [3] were 0.907 µM and 0.1 µM, respectively.

On to `Cc1cc(C)nc(N2CCC3(CCCN(Cc4cccc(-c5ncccn5)c4)C3=O)CC2)n1` [Example 31, 9-(4,6-dimethylpyrimidin-2-yl)-2-(3-(pyrimidin-2-yl)benzyl)-2,9-diazaspiro[5.5]undecan-1-one], for which the inhibition constant Ki in test [1] worked out at 0.092 µM; in test [4], 1.61 µM. The Kd in test [2] came to 3.81 µM; in test [3] it was 0.145 µM.

On to `Cc1cc(C#N)nc(N2CCC3(CCCN(Cc4cccc(-c5ncccn5)c4)C3=O)CC2)n1` [Example 32, 6-methyl-2-(1-oxo-2-(3-(pyrimidin-2-yl)benzyl)-2,9-diazaspiro[5.5]undecan-9-yl)pyrimidine-4-carbonitrile], for which the inhibition constant Ki turned out to be 0.059 µM in test [1] and 1.86 µM in test [4]. The Kd in test [2] is more than 10 µM; in test [3], 0.383 µM.

In the case of `N#Cc1ccnc(N2CCC3(CCCN(Cc4cccc(-c5ncccn5)c4)C3=O)CC2)n1` [Example 33, 2-(1-oxo-2-(3-(pyrimidin-2-yl)benzyl)-2,9-diazaspiro[5.5]undecan-9-yl)pyrimidine-4-carbonitrile], the inhibition constant Ki in test [1] is 0.037 µM; in test [4], 0.477 µM. For the same compound, the dissociation constant (Kd) in test [2] stood at 0.744 µM; in test [3] it was 0.22 µM.

Regarding `N#Cc1cccc(N2CCC3(CCCN(Cc4cccc(-c5ncccn5)c4)C3=O)CC2)n1` [Example 34, 6-(1-oxo-2-(3-(pyrimidin-2-yl)benzyl)-2,9-diazaspiro[5.5]undecan-9-yl)picolinonitrile], the inhibitory constant (Ki) in test [1] turned out to be 0.073 µM; in test [4] it was 0.554 µM. The figures for the dissociation constant (Kd) in test [2] and in test [3] were 2.29 µM and 0.674 µM, respectively.

As to `N#Cc1ccnc(N2CCC3(CCCN(Cc4cccc(-c5ncccn5)c4)C3=O)CC2)c1` [Example 35, 2-(1-oxo-2-(3-(pyrimidin-2-yl)benzyl)-2,9-diazaspiro[5.5]undecan-9-yl)isonicotinonitrile], the Ki in test [1] is 0.045 µM; in test [4] it was 0.868 µM. Besides, the Kd was 0.394 µM in test [2] and 0.098 µM in test [3].

For `Cc1cc(C)nc(N2CCC3(CCCN(Cc4cccc(-c5ncc(C)o5)c4)C3=O)CC2)n1` [Example 36, 9-(4,6-dimethylpyrimidin-2-yl)-2-(3-(5-methyloxazol-2-yl)benzyl)-2,9-diazaspiro[5.5]undecan-1-one], the results for the Ki in test [1] and in test [4] were 0.038 µM and 0.714 µM, respectively. For the same compound, the Kd in test [2] stood at 0.431 µM; in test [3] it was 0.089 µM.

In the case of `Cc1cc(C#N)nc(N2CCC3(CCCN(Cc4cccc(-c5ncc(C)o5)c4)C3=O)CC2)n1` [Example 37, 6-methyl-2-(2-(3-(5-methyloxazol-2-yl)benzyl)-1-oxo-2,9-diazaspiro[5.5]undecan-9-yl)pyrimidine-4-carbonitrile], the inhibitory constant (Ki) came to 0.079 µM in test [1] and 1.89 µM in test [4]. Also, the figures for the Kd in test [2] and in test [3] were more than 10 µM and 1.16 µM, respectively.

Consider `Cc1ccnc(N2CCC3(CCCN(Cc4cccc(-c5ncc(C)o5)c4)C3=O)CC2)n1` [Example 38, 2-(3-(5-methyloxazol-2-yl)benzyl)-9-(4-methylpyrimidin-2-yl)-2,9-diazaspiro[5.5]undecan-1-one], for which the Ki in test [1] was 0.043 µM; in test [4], 0.924 µM. Also, the Kd in test [2] was 1.19 µM; in test [3], 0.177 µM.

`Cc1cnc(-c2cccc(CN3CCCC4(CCN(c5cccc(C#N)n5)CC4)C3=O)c2)o1` [Example 39, 6-(2-(3-(5-methyloxazol-2-yl)benzyl)-1-oxo-2,9-diazaspiro[5.5]undecan-9-yl)picolinonitrile]: the inhibition constant Ki worked out at 0.029 µM in test [1] and 0.533 µM in test [4]. Further, the results for the dissociation constant Kd in test [2] and in test [3] were 1.44 µM and 0.367 µM, respectively.

With `Cc1cnc(-c2cccc(CN3CCCC4(CCN(c5cc(C#N)ccn5)CC4)C3=O)c2)o1` [Example 40, 2-(2-(3-(5-methyloxazol-2-yl)benzyl)-1-oxo-2,9-diazaspiro[5.5]undecan-9-yl)isonicotinonitrile], the inhibition constant Ki in test [1] worked out at 0.019 µM; in test [4], 0.241 µM. Further, the dissociation constant Kd in test [2] was found to be 0.332 µM; in test [3] it was 0.037 µM.

For the compound `Cc1cncc(N2CCC3(CCCC(=O)N3Cc3cccc4[nH]ccc34)CC2)n1` [Example 41, 1-((1H-indol-4-yl)methyl)-9-(6-methylpyrazin-2-yl)-1,9-diazaspiro[5.5]undecan-2-one], the Ki in test [1] stood at 0.015 µM; in test [4], 1.64 µM. In addition, the figures for the Kd in test [2] and in test [3] were 2.82 µM and 0.085 µM, respectively.

Broadly, the inhibition is how much of the control response was suppressed. As for `Cc1ccnc(N2CCC3(CCCC(=O)N3Cc3cccc4[nH]ccc34)CC2)n1` [Example 42, 1-((1H-indol-4-yl)methyl)-9-(4-methylpyrimidin-2-yl)-1,9-diazaspiro[5.5]undecan-2-one], the Ki in test [1] worked out at 0.026 µM. Besides, the Kd is 5.23 µM in test [2] and 0.14 µM in test [3]. Further, in test [4], the inhibition at 10 µM was found to be 34%.

As for `COc1cncc(N2CCC3(CCCC(=O)N3Cc3cccc4[nH]ccc34)CC2)n1` [Example 43, 1-((1H-indol-4-yl)methyl)-9-(6-methoxypyrazin-2-yl)-1,9-diazaspiro[5.5]undecan-2-one], the figures for the Ki in test [1] and in test [4] were 0.017 µM and 0.729 µM, respectively. Also, the values for the Kd in test [2] and in test [3] were 1.86 µM and 0.612 µM, respectively.

Regarding `O=C1CCCC2(CCN(c3cncc(Cl)n3)CC2)N1Cc1cccc2[nH]ccc12` [Example 44, 1-((1H-indol-4-yl)methyl)-9-(6-chloropyrazin-2-yl)-1,9-diazaspiro[5.5]undecan-2-one], the Ki in test [1] came out at 0.012 µM; in test [4], 1.57 µM. In addition, the Kd is 5.74 µM in test [2] and 0.238 µM in test [3].

Consider `Cc1cc(C)nc(N2CCC3(CCCN(Cc4n[nH]c5ccccc45)C3=O)CC2)n1` [Example 45, 2-((1H-indazol-3-yl)methyl)-9-(4,6-dimethylpyrimidin-2-yl)-2,9-diazaspiro[5.5]undecan-1-one], for which the values for the inhibition constant Ki in test [1] and in test [4] were 0.01 µM and 0.521 µM, respectively. For the same compound, the Kd in test [2] came to 1.06 µM; in test [3], 0.064 µM.

For the compound `O=C1N(Cc2c[nH]c3ccccc23)CCCC12CCN(c1nccc(Cl)n1)CC2` [Example 51, 2-((1H-indol-3-yl)methyl)-9-(4-chloropyrimidin-2-yl)-2,9-diazaspiro[5.5]undecan-1-one], the Ki in test [1] is 0.084 µM. The Kd in test [2] stood at 4.82 µM; in test [3] it was 0.7 µM. In addition, the inhibition at 10 µM in test [4] worked out at 44%.
